This is an account of results in patent US20070135457A1, “Pyrido[2,3-d]pyrimidine-2,4-diamines as pde2 inhibitors” (Pfizer Inc., priority 2003, published 2007).

For data set [1], the target named is T1, PDE 2 enzyme isolated from human platelets (Homo sapiens, UniProt O00408).
T1 construct: PDE 2 enzyme was isolated from human platelets; from tissue; host or cells: human platelets (pooled blood from multiple donors); HiTrap Q anion-exchange fraction eluting at about 325 mM NaCl
In words: PDE 2 enzyme scintillation proximity assay (SPA). The class given is biochemical. The method, then: PDE 2 enzyme was isolated from human platelets with approximately 1.4 L of blood from multiple donors used to make the platelet pellets. Platelets were resuspended in approximately 75 mL of lysis buffer [20 mM Tris pH 7.2, 5 mM MgCl2, 250 mM Sucrose, 1 mM DTT, 1 μL/2 mL Sigma Protease inhibitor #8340; Sigma-Aldrich; St. Louis, Mo.] and lysed by sonication at 4° C., with 3 rounds of 1 min bursts then spun at 4° C. overnight at 100,000×g. Cleared lysates were loaded to AKTA Explorer FPLC (Amersham Biosciences; Piscataway, N.J.) in a series of three chromatographic separations, with an average load volume of 25 mL. A 5 mL HiTrap Q anion exchange column (Amersham Biosciences) was used. […] Two major cGMP activity fractions (PDE 5 and PDE 2) were isolated and pooled separately. The PDE 2-pooled fraction total was approximately 40 mL which was dispensed in cryovials of 200 μl/vial and placed in storage at −80° C.
The inhibitory activity of the compounds of formula (I) on recombinant or isolated PDE 2, and other PDE's, was determined using the […] scintillation proximity assay (SPA) kits from Amersham International (Little Chalfont, England). The SPA assays were performed using 96 well plates. The PDE SPA yttrium silicate beads (Amersham Biosciences) bind preferentially to the linear nucleotide, GMP, compared to the cyclic nucleotide, cGMP. ^3H-cGMP was added to the reaction and when the product, ^3H-GMP, was in […] to the beads, the scintillant within the bead was excited, which was detected using a Packard scintillation counter (Perkin-Elmer Life Sciences; Boston, Mass.). The enzyme concentration used was in the linear range and the Km of the enzyme was determined (15 uM). The final substrate concentration was <1/3 of Km (1 μM) so that IC50 values would approximate the Ki values. The assay was validated using literature compounds as controls before testing compounds. Then, PDE catalytic activity measurements obtained in the presence of the test compound, and those obtained in the absence of the test compound, were compared and the lC50 value is determined. […]
(Scintillation proximity formats need no separation of bound from free tracer.)

The subject of data set [2] is femur (periosteal bone induction). As to the kind of experiment: Rat periosteal injection model. It counts as in vivo. As to conditions: daily local injection five times per week for two weeks; Day 15; male Sprague-Dawley rats. On the procedure: Rats were anesthetized with isoflurane (2-3 min) in a conduction chamber located in a fume hood. The right hindlimb of each rat was shaved and cleaned. A 25 gauge needle attached to a syringe was pre-filled with a formulation of the test compound for local injection. The formulation was injected onto the subperiosteum of femur in a volume of 5-15 μL for 14 days. The rats were sacrificed after dosing, the femurs were collected, and then analyzed by radiography and dual-energy X-ray absorptiometry (DEXA).
The right femur of three-week old male Sprague-Dawley rats received a daily injection of vehicle or test compound five times per week for two weeks. On Day 15, all rats were sacrificed and the right femurs were collected for analysis. Periosteal bone induction was assessed using radiography and DEXA. […] The bone mineral content (BMC) of the injected region of the femur (area between lesser trochanter and mid-shaft of the femur) was assessed by DEXA comparing rats treated with test compound with those treated only with vehicle. In this model, N^4-(3,5-dimethoxy-benzyl)-N^2-(2-pyridin-4-yl-ethyl)-pyrido[2,3-d]pyrimidine-2,4-diamine, 2-(3-{3-[4-(3,4-dimethoxy-benzylamino)-pyrido[2,3-d]pyrimidin-2-ylamino]-propyl}-phenyl)-propan-2-ol, and N^4-(3,4-dimethoxy-benzyl)-N^2-(3-phenyl-propyl)-pyrido[2,3-d]pyrimidine-2,4-diamine increased BMC by 34%, 49%, and 33% respectively. Additionally, 9-(1-acetyl-4-phenyl-butyl)-2-(3,4-dimethoxy-benzyl)-1,9-dihydropurin-6-one increased BMC by 20% in the aforementioned model.

Another data set has as its system fractured right femurs. As to the kind of experiment: Rat transverse femoral fracture model. It counts as in vivo. Particulars: single 5 mg dose injected percutaneously into fracture site; three weeks after injection; male rats. The method, then: Male Sprague-Dawley rats at 3 to 4 months of age were used. The animals were anesthetized with ketamine and xylazine at doses of 100 and 10 mg/kg, respectively. The right hindlimb of each rat was shaved and cleaned. A 1 cm incision was made just lateral to the patella and the femoral condyle was exposed. A Kirschner wire (0.045″ in diameter) was introduced into the intramedullary canal through the intercondylar portion to serve as an internal stabilization. The muscle incision was closed with vicryl and the skin incision was closed with stainless steel wound clips. The mid-diaphysis of the pinned femur was fractured by means of a three-point bending device driven by a dropped weight. The rats were permitted full weight-bearing and unrestricted activity after awakening from anesthesia. The test compounds were administered on various days after surgery by percutaneous injection onto the fracture site. The animals were sacrificed after treatment and the femurs were collected for analysis. Fracture healing was evaluated by using radiography, histological, and biomechanical test (F. Bonnarens, et al., Journal of Orthopaedic Research, 2, 97-101 (1984).
Three month-old male rats were subjected to transverse fracture of their right femurs under general anesthesia. […] Three weeks after the injections, the rats were sacrificed and the right femurs were harvested and analyzed. […]

Setting [3] is: SPA, 1 μM substrate, read-out: PDE 2 Inhibition.

The structures appear in SMILES notation. Read-outs that look alike come from different tables or passages of the source.

T1 sequence (O00408 whole entry): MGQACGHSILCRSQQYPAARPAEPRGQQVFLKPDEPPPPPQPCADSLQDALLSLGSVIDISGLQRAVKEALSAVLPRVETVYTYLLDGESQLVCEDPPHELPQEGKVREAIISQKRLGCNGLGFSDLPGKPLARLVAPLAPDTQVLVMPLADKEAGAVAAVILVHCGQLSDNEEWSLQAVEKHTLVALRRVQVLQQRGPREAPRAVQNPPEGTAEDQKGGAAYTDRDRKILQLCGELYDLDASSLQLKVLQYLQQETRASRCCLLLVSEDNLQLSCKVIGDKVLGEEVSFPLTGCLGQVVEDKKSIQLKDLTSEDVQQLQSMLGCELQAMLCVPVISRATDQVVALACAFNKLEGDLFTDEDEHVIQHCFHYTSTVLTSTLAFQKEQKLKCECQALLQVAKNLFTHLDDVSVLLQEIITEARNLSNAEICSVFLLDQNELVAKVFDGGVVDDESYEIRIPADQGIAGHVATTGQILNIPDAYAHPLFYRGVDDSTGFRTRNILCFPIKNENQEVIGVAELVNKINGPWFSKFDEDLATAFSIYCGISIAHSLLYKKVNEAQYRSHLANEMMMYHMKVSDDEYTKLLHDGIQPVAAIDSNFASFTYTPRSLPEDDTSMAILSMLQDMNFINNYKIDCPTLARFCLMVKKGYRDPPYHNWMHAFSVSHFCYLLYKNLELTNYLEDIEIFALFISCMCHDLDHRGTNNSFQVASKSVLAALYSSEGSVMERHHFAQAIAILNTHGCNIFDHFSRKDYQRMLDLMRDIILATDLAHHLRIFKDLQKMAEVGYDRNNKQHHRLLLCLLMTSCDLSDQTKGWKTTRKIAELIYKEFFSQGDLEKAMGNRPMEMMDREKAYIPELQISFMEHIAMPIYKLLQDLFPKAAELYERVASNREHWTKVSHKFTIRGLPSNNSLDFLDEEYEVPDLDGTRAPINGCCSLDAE

Take `COc1ccc(Cc2nc3c(ncn3C(CCCc3ccccc3)C(C)=O)c(=O)[nH]2)cc1OC` (centres unmarked) [9-(1-acetyl-4-phenyl-butyl)-2-(3,4-dimethoxy-benzyl)-1,9-dihydropurin-6-one, reference compound]: the IC50 in data set [1] (PDE 2, read-out: IC50) was 0.003 µM. In addition, the “bone mineral content (BMC) increase of injected region of femur by DEXA vs vehicle” value (from here on “bone mineral content (BMC) increase”) in data set [2] stood at 20%.
Consider `COc1ccc(CNc2nc(NCCCc3ccccc3)nc3ncccc23)cc1OC` [Example 32, N^4-(3,4-Dimethoxy-benzyl)-N^2-(3-phenyl-propyl)-pyrido[2,3-d]pyrimidine-2,4-diamine], for which the melting point was in the range of 190 to 192 °C. In addition, in the data set with fractured right femurs, the “Force-to-failure increased compared to placebo” value is listed as 19% and the “stiffness increased compared to placebo” value worked out at 62%. Further, the IC50 in data set [1] (setting [3]) lay in the range of 0.25 to 1 µM. In addition, the “bone mineral content (BMC) increase” value in data set [2] is 33%.
Molecule `COc1ccc(CNc2nc(NCCc3ccccc3)nc3ncccc23)cc1OC` [Example 17, N^4-(3,4-Dimethoxy-benzyl)-N^2-phenethyl-pyrido[2,3-d]pyrimidine-2,4-diamine] had a melting point of 217 to 218 °C. Besides, in data set [1] (setting [3]), the IC50 is less than 0.05 µM.
The molecule `COc1ccc(CNc2nc(NCc3ccc(C(O)C(F)(F)F)cc3)nc3ncccc23)cc1OC` (centres unmarked) [Example 23, 1-(4-{[4-(3,4-Dimethoxy-benzylamino)-pyrido[2,3-d]pyrimidin-2-ylamino]-methyl}-phenyl)-2,2,2-trifluoro-ethanol] displayed a melting point of 121 to 122 °C. The IC50 in data set [1] (setting [3]) was 0.25 to 1 µM.
Molecule `COc1cc(CNc2nc(NCCc3cccnc3)nc3ncccc23)cc(OC)c1` [Example 2, N^4-(3,5-Dimethoxy-benzyl)-N^2-(2-pyridin-3-yl-ethyl)-pyrido[2,3-d]pyrimidine-2,4-diamine] had a melting point of 185 to 186 °C. Besides, the IC50 in data set [1] (setting [3]) was 0.05 to 0.25 µM.
As for `COc1ccc(CNc2nc(NCCCc3ccc(C#N)cc3)nc3ncccc23)cc1OC` [Example 30, 4-{3-[4-(3,4-Dimethoxy-benzylamino)-pyrido[2,3-d]pyrimidin-2-ylamino]-propyl}-benzonitrile], the melting point was 220 to 222 °C. In addition, the IC50 in data set [1] (setting [3]) was 0.25 to 1 µM.
In the same order, the values of `COc1cc(CNc2nc(NCCc3ccc(Cl)cc3)nc3ncccc23)cc(OC)c1` [Example 8, N^2-[2-(4-Chloro-phenyl)-ethyl]-N^4-(3,5-dimethoxy-benzyl)-pyrido[2,3-d]pyrimidine-2,4-diamine] are 85 to 90 °C and 0.25 to 1 µM.
`COc1cc(CNc2nc(NCCc3ccncc3)nc3ncccc23)cc(OC)c1` [Example 3, N^4-(3,5-Dimethoxy-benzyl)-N^2-(2-pyridin-4-yl-ethyl)-pyrido[2,3-d]pyrimidine-2,4-diamine] had a melting point of 234 to 235 °C. Further, the IC50 in data set [1] (setting [3]) is 0.25 to 1 µM. Also, the “bone mineral content (BMC) increase” value in data set [2] is on record as 34%.
Molecule `COc1ccc(CNc2nc(NCCCc3cccc(C(C)(C)O)c3)nc3ncccc23)cc1OC` [Example 29, 2-(3-{3-[4-(3,4-Dimethoxy-benzylamino)-pyrido[2,3-d]pyrimidin-2-ylamino]-propyl}-phenyl)-propan-2-ol] gave a melting point of 204 to 205 °C. Further, the IC50 in data set [1] (setting [3]) was 0.25 to 1 µM. Also, the “bone mineral content (BMC) increase” value in data set [2] amounted to 49%.
Take `CCOc1cc(CNc2nc(NCCCc3ccccc3)nc3ncccc23)ccc1OC` [Example 34, N^4-(3-Ethoxy-4-methoxy-benzyl)-N^2-(3-phenyl-propyl)-pyrido[2,3-d]pyrimidine-2,4-diamine]: the melting point was 181 to 182 °C. For the same molecule, the IC50 in data set [1] (setting [3]) lay within 0.25 to 1 µM.
Consider `COc1cc(CNc2nc(NCCc3cccs3)nc3ncccc23)cc(OC)c1` [Example 10, N^4-(3,5-Dimethoxy-benzyl)-N^2-(2-thiophen-2-yl-ethyl)-pyrido[2,3-d]pyrimidine-2,4-diamine], for which the melting point was in the range of 120 to 121 °C. Also, the IC50 in data set [1] (setting [3]) is less than 0.05 µM.
With `COc1ccc(CNc2nc(NCCCc3ccc(C(C)(C)O)cc3)nc3ncccc23)cc1OC` [Example 21, 2-(4-{3-[4-(3,4-Dimethoxy-benzylamino)-pyrido[2,3-d]pyrimidin-2-ylamino]-propyl}-phenyl)-propan-2-ol], the melting point is 198 to 199 °C. In addition, in data set [1] (setting [3]), the IC50 lay within 0.25 to 1 µM.

Usually melting point stands for the temperature, or range, at which the solid turns liquid.
